Assay results published in article PMC12518693, “Potent Fluorescent Probe for Target‐Engagement Studies of Allosteric Pyruvate Kinase Modulators” (Angewandte Chemie (International Ed. in English), 2025).

Columns and labels:
PKLNluc [1] = target: T1, PKLNluc (Homo sapiens, UniProt P30613); assay: NanoBRET with recombinant PKLNluc; conditions: tracer IV 100 nM, 450/550 nm, ± mitapivat
Method: Due to the low quantum yield of SBD‐containing IV (Table S1), we optimized the plate reader settings for the NanoBRET assay to maximize the signal‐to‐background (S/B) ratio. The fluorescence excitation spectrum of tracer IV overlapped with the emission band of PKLNluc (Figure 5a), prompting the screening of wavelength pairs within 400–600 nm.
The donor/acceptor wavelength pairs were recorded at 450/470 nm, 550/510 nm, 450/530 nm, 450/550 nm, 450/610 nm, 450/630 nm and 400/470 nm respectively. For each sample well, BRET ratios were calculated using the following formula:
Where AcceptorS is the luminescence intensity (FI) of the sample well at 550 nm, DonorS is the FI of the sample well at 450 nm, and AcceptorNT and DonorNT are the FI of the no-tracer control at 550 nm and 450 nm respectively.

PKL = PKL (Homo sapiens, UniProt P30613); assay: Recombinant PKL activity assay (Kinase-Glo MAX); type: biochemical; set-up: co-crystallisation of full-length PKL (including the B-domain); 8xHis (TEV-cleavable) (N, cleaved yes); made in house; host or cells: E. coli T7 Express (NEB), pExp-NHis plasmid
Method: The two isozymes were incubated with increasing concentrations of compounds before the addition of substrates PEP and adenosine diphosphate (ADP), and the reactions were monitored using a Kinase‐Glo MAX assay.
Figure S2. […] The reactions were terminated by the addition of Kinase Glo-MAX reagent after 10 min, and the luminescence from each reaction was quantified using a plate reader. The activity values are expressed as a percentage of PK activity of the DMSO control. The potencies were calculated by best fit of the Hill equation to the luminescence data.^[2] (A) PKL titrations. (B) PKM2 titrations. Error bars represent the ±SE of replicates (n = 3).
The reaction mixture contained 0.2 mM ADP, 0.1 mM PEP, 5 nM PKL, 1% DMSO, and test compounds at concentrations ranging from 0 to 1 mM across 12 titration points. Prior to substrate addition, PKL and test compounds were pre-incubated for 15 minutes.
After the reaction, 5 µL of Kinase-Glo Max reagent was added to each well. […] For each data set, luminescence from the DMSO control was set as 100% activity, and luminescence from the protein blank (no PKL) as 0% activity. Percentage activity (E%) was calculated using the equation: […]
Titration data was fitted to the Hill equation in Origin to determine EC₅₀ values.

PKLNluc [2] = target: T1, PKLNluc; assay: Live-cell NanoBRET assay in HEK293 cells; type: cell-based; set-up: host or cells: HEK293, transient transfection
Method: To investigate the intracellular interaction of tracer IV with PKLNluc, we prepared a mammalian expression construct, fusing Nluc to the N‐terminus of PKL. […] As a negative control for NanoBRET experiments, a construct expressing Nluc alone (without PKL) was also prepared.
Additionally, cell viability assays were conducted on cells transfected with either PKLNluc or Nluc plasmids and incubated with tracer IV (Figure S4b,c).
HEK293 cells were passed one day before transfection. The concentration of cells was adjusted to 2x10^5 cells/ml in Opti-MEM™ without phenol red (Invitrogen) supplemented with 1% FBS (Hyclone). Cells (4x10^6) were reversed transfected with 1 µg of PKLNluc plasmid or 1 µg Nluc plasmid and 9 µg of carrier DNA (Promega) using 30 µL of Fugene HD transfection reagent (Promega). […] Work solutions (100x) of tracer IV were prepared from DMSO stocks and further diluted to 20x concentrations with Tracer buffer (Promega). Twenty-five hours after transfection, the cells were treated with 5 µL/well of each of 20x concentrations of the tracer (final concentrations in the assay were in the range 0.001-1 µM, depending on the experiment). Thereafter, 10 µL of 10x solutions of competitors (diluted in Opti-MEM™ medium from stocks of 100x prepared in DMSO) were added to some sets of cells, while the other set received only Opti-MEM™ containing 1% DMSO. The cells were incubated for 2 h at 37°C (5% CO2). […] For each sample well, BRET ratios were calculated using the following formula:
BRET ratio mBU= AcceptorSDonorS-AcceptorNTDonorNT
Where AcceptorS is the luminescence intensity of the sample well at 550 nm, DonorS is the luminescence of the sample well at 450 nm, and AcceptorNT and DonorNT are the luminescence of the no-tracer control at 550 nm and 450 nm respectively.

PKM2 = PKM2 (Homo sapiens, UniProt P14618); assay: Recombinant PKM2 activity assay (Kinase-Glo MAX); type: biochemical; set-up: made in house
Method: As these compounds were binding to a known allosteric site on PK, the effects of ligands I–IV on the enzymatic activities of PKL and PKM2 were determined (Figure S2). The two isozymes were incubated with increasing concentrations of compounds before the addition of substrates PEP and adenosine diphosphate (ADP), and the reactions were monitored using a Kinase‐Glo MAX assay.
Figure S2. Effects of ligands I-IV on recombinant PK activities. PKL or PKM2 (10 nM) were pre-incubated with the compounds (0-100 µM) for 15 min following the addition of PEP (0.1 mM) and ADP (0.2 mM). The reactions were terminated by the addition of Kinase Glo-MAX reagent after 10 min, and the luminescence from each reaction was quantified using a plate reader. The activity values are expressed as a percentage of PK activity of the DMSO control. The potencies were calculated by best fit of the Hill equation to the luminescence data.^[2] (A) PKL titrations. (B) PKM2 titrations. Error bars represent the ±SE of replicates (n = 3).

T1 sequence (P30613 1-543 isoform P30613-2): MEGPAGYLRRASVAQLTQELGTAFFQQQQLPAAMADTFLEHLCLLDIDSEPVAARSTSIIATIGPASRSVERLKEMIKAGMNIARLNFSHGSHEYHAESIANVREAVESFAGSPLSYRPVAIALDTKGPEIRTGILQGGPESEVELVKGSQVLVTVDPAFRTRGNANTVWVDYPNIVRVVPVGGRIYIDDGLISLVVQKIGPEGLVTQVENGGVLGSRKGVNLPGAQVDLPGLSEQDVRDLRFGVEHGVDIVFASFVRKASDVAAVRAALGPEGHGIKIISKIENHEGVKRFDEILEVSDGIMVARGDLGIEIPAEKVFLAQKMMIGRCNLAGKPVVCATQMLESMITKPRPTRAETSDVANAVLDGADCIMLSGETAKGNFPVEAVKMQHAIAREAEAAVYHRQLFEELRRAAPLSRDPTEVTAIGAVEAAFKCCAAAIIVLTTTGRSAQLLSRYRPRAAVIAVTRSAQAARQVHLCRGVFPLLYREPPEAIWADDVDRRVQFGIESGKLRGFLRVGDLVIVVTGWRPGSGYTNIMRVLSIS
PKM2, sequence (P14618 whole entry): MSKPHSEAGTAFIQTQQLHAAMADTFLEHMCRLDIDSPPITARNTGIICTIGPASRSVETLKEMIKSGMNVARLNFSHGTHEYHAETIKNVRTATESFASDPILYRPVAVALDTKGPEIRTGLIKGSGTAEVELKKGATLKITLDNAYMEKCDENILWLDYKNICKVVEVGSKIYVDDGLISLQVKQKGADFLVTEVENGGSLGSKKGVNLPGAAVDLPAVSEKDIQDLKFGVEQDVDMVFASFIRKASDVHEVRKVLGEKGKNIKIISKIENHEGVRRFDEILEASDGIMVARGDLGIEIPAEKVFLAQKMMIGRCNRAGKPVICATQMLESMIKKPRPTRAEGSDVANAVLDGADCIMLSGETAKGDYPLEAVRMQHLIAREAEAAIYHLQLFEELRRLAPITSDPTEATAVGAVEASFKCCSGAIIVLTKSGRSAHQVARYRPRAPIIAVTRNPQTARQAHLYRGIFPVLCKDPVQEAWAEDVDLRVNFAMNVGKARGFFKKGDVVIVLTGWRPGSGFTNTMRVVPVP
PKL, sequence (P30613 1-543 isoform P30613-2): as the sequence (P30613 1-543 isoform P30613-2) above

CN(C)c1ccc(S(=O)(=O)c2ccc3c(=O)n(Cc4cc[nH]n4)ncc3c2)c2nonc12 [Compound IV, 2-((1H-Pyrazol-3-yl)methyl)-6-((7-(dimethylamino)benzo[c][1,2,5]oxadiazol-4-yl)sulfonyl)phthalazin-1(2H)-one]
BRET assay window (PKLNluc [1]): 39 mBU | EC50 (PKL; recombinant PKL 10 nM, 15 min pre-incubation, PEP 0.1 mM, ADP 0.2 mM): 13 nM | PKL E max (PKL; recombinant PKL, above 100% activation, below 100% inhibition): 169 % vehicle | tracer concentration above which nonspecific binding signals emerged (PKLNluc [2]; HEK293, PKLNluc): exceeding 400 nM | EC50 (PKLNluc [2]; HEK293 transfected with PKLNluc, 2 h 37 °C, displacement control (20 µM mitapivat) subtracted, read-out: EC50 (cell), tracer titration, specific BRET signal): 18.4 nM | PKM2 E max (PKM2; recombinant PKM2): 449 % of vehicle | EC50 (PKM2; recombinant PKM2 10 nM, 15 min pre-incubation, PEP 0.1 mM, ADP 0.2 mM): 17 nM
